Test results taken from the supplement of paper PMC10307832.

These cell lines were tested with Cc1ccc2nc(NCCN)c3ncc(C)n3c2c1 + Cc1nc(Nc2ncc(C(=O)Nc3c(C)cccc3Cl)s2)cc(N2CCN(CCO)CC2)n1 [Dasatinib] (partner 0.075 µM) (assay: relative viability (nuclei count vs DMSO), 5 days (fraction); higher = more cells survive). Details: first compound 4 µM.
Procedure, shortened: (§1)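 Cells from lung cancer lines were seeded into 1536-well plates and, one day later, dosed by pin tool. Treatments were either a single drug or a fixed dose of an anchor drug with five library-drug doses (not always all listed) in √10 steps. After 5 days, nuclei were stained in a one-step fixation (final 0.05% Triton X-100, 1% formaldehyde, 1 ug/ml Hoechst) and counted on 4× images, and relative viability is the treated-to-vehicle nuclei ratio, as the median of duplicate plates.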

In the case of LC-2-ad, the relative viability is reported as 0.324.

These cell lines were tested with O=C(/C=C/c1ccccc1)NC(NC(=S)Nc1cccc2cccnc12)C(Cl)(Cl)Cl [Salubrinal] + Cc1cc(Nc2cc(N3CCN(C)CC3)nc(Sc3ccc(NC(=O)C4CC4)cc3)n2)n[nH]1 [Tozasertib] (partner 0.1 µM) in the same assay as above. Details: first compound 0.08 µM.
Procedure, shortened: as §1

Going from HARA to SW 900, the relative viability rises from 0.122 to 0.539.

Going from NCI-H322M to LCLC-97TM1, the relative viability falls from 0.511 to 0.238.

First: NCI-H2009
Second: A-427
The relative viability of the first is higher: 0.762 for the first, 0.22 for the second.

Compared with NCI-H441, NCI-H661 is lower in relative viability: 0.554 for the first, 0.367 for the second.

First: NCI-H1734
Second: NCI-H460
The relative viability of the first is lower: 0.304 for the first, 0.393 for the second.

Going from NCI-H2347 to SK-LU-1, the relative viability falls from 0.619 to 0.334.

Compared with NCI-H1395, 201T is higher in relative viability: 0.822 for the first, 0.873 for the second.

Compared with NCI-H1915, HCC-827 is lower in relative viability: 0.484 for the first, 0.429 for the second.

Compared with LXF-289, NCI-H23 is higher in relative viability: 0.183 for the first, 0.349 for the second.

Going from NCI-H647 to CAL-12T, the relative viability falls from 0.418 to 0.32.

Compared with NCI-H1651, EPLC-272H is lower in relative viability: 0.711 for the first, 0.426 for the second.

Compared with NCI-H2228, NCI-H1355 is higher in relative viability: 0.268 for the first, 0.697 for the second.

Going from NCI-H3122 to NCI-H1437, the relative viability falls from 0.416 to 0.415.

Compared with NCI-H1755, NCI-H2023 is lower in relative viability: 0.573 for the first, 0.323 for the second.

Going from HCC-15 to PC-14, the relative viability rises from 0.481 to 0.629.

Going from EKVX to LC-2-ad, the relative viability rises from 0.437 to 0.45.

Same assay, conditions: first compound 0.253 µM

First: BEN
Second: HARA
The relative viability of the first is higher: 0.689 for the first, 0.108 for the second.

Going from NCI-H322M to LCLC-97TM1, the relative viability falls from 0.445 to 0.157.

Compared with NCI-H2009, A-427 is lower in relative viability: 0.733 for the first, 0.226 for the second.

Going from NCI-H441 to NCI-H661, the relative viability falls from 0.431 to 0.36.

First: NCI-H1734
Second: NCI-H460
The relative viability of the first is lower: 0.256 for the first, 0.268 for the second.

First: NCI-H2347
Second: SK-LU-1
The relative viability of the first is higher: 0.543 for the first, 0.326 for the second.

Compared with NCI-H1395, 201T is lower in relative viability: 0.849 for the first, 0.837 for the second.

Compared with NCI-H1915, HCC-827 is higher in relative viability: 0.291 for the first, 0.423 for the second.

Compared with LXF-289, NCI-H23 is higher in relative viability: 0.18 for the first, 0.393 for the second.

First: NCI-H647
Second: CAL-12T
The relative viability of the first is higher: 0.287 for the first, 0.279 for the second.

First: NCI-H1651
Second: EPLC-272H
The relative viability of the first is higher: 0.639 for the first, 0.249 for the second.

Going from NCI-H2228 to NCI-H1355, the relative viability rises from 0.304 to 0.519.

Going from NCI-H3122 to NCI-H1437, the relative viability falls from 0.387 to 0.362.

First: NCI-H1755
Second: NCI-H2023
The relative viability of the first is higher: 0.61 for the first, 0.286 for the second.

First: HCC-15
Second: PC-14
The relative viability of the first is lower: 0.332 for the first, 0.663 for the second.

Compared with EKVX, LC-2-ad is higher in relative viability: 0.387 for the first, 0.449 for the second.

Same assay, conditions: first compound 0.8 µM

First: BEN
Second: HARA
The relative viability of the first is higher: 0.718 for the first, 0.111 for the second.

Compared with SW 900, NCI-H322M is lower in relative viability: 0.681 for the first, 0.479 for the second.

Compared with LCLC-97TM1, NCI-H2009 is higher in relative viability: 0.266 for the first, 0.774 for the second.

First: A-427
Second: NCI-H441
The relative viability of the first is lower: 0.227 for the first, 0.74 for the second.

First: NCI-H661
Second: NCI-H1734
The relative viability of the first is higher: 0.373 for the first, 0.294 for the second.

Going from NCI-H460 to NCI-H2347, the relative viability rises from 0.484 to 0.617.

Compared with SK-LU-1, NCI-H1395 is higher in relative viability: 0.344 for the first, 0.72 for the second.

Going from 201T to NCI-H1915, the relative viability falls from 0.933 to 0.337.

Going from HCC-827 to LXF-289, the relative viability falls from 0.406 to 0.216.

First: NCI-H23
Second: NCI-H647
The relative viability of the first is higher: 0.678 for the first, 0.319 for the second.

First: CAL-12T
Second: NCI-H1651
The relative viability of the first is lower: 0.323 for the first, 0.776 for the second.

Going from EPLC-272H to NCI-H2228, the relative viability rises from 0.258 to 0.283.

First: NCI-H1355
Second: NCI-H3122
The relative viability of the first is lower: 0.524 for the first, 0.591 for the second.

Compared with NCI-H1437, NCI-H1755 is higher in relative viability: 0.418 for the first, 0.611 for the second.

Compared with NCI-H2023, HCC-15 is higher in relative viability: 0.323 for the first, 0.41 for the second.

First: PC-14
Second: EKVX
The relative viability of the first is higher: 0.638 for the first, 0.536 for the second.

LC-2-ad was tested, and the relative viability was 0.478.

Same assay, conditions: first compound 2.53 µM

Going from BEN to HARA, the relative viability falls from 0.479 to 0.0979.

Compared with SW 900, NCI-H322M is lower in relative viability: 0.568 for the first, 0.44 for the second.

Compared with LCLC-97TM1, NCI-H2009 is higher in relative viability: 0.188 for the first, 0.718 for the second.

First: A-427
Second: NCI-H441
The relative viability of the first is lower: 0.227 for the first, 0.576 for the second.

First: NCI-H661
Second: NCI-H1734
The relative viability of the first is higher: 0.356 for the first, 0.274 for the second.

Going from NCI-H460 to NCI-H2347, the relative viability rises from 0.253 to 0.51.

Compared with SK-LU-1, NCI-H1395 is higher in relative viability: 0.287 for the first, 0.714 for the second.

Going from 201T to NCI-H1915, the relative viability falls from 0.98 to 0.387.

First: HCC-827
Second: LXF-289
The relative viability of the first is higher: 0.417 for the first, 0.194 for the second.

First: NCI-H23
Second: NCI-H647
The relative viability of the first is higher: 0.305 for the first, 0.288 for the second.

Compared with CAL-12T, NCI-H1651 is higher in relative viability: 0.241 for the first, 0.608 for the second.

Compared with EPLC-272H, NCI-H2228 is lower in relative viability: 0.243 for the first, 0.222 for the second.

First: NCI-H1355
Second: NCI-H3122
The relative viability of the first is higher: 0.498 for the first, 0.387 for the second.

First: NCI-H1437
Second: NCI-H1755
The relative viability of the first is lower: 0.404 for the first, 0.457 for the second.

Going from NCI-H2023 to HCC-15, the relative viability rises from 0.236 to 0.438.

Compared with PC-14, EKVX is lower in relative viability: 0.525 for the first, 0.382 for the second.

Cell Line LC-2-ad has a relative viability of 0.408.

Same assay, conditions: first compound 8 µM

First: BEN
Second: HARA
The relative viability of the first is higher: 0.471 for the first, 0.106 for the second.

Compared with SW 900, NCI-H322M is higher in relative viability: 0.337 for the first, 0.469 for the second.

First: LCLC-97TM1
Second: NCI-H2009
The relative viability of the first is lower: 0.165 for the first, 0.637 for the second.

First: A-427
Second: NCI-H441
The relative viability of the first is lower: 0.21 for the first, 0.448 for the second.

Going from NCI-H661 to NCI-H1734, the relative viability falls from 0.37 to 0.268.

First: NCI-H460
Second: NCI-H2347
The relative viability of the first is lower: 0.102 for the first, 0.568 for the second.

Compared with SK-LU-1, NCI-H1395 is higher in relative viability: 0.286 for the first, 0.805 for the second.

First: 201T
Second: NCI-H1915
The relative viability of the first is higher: 0.967 for the first, 0.432 for the second.

First: HCC-827
Second: LXF-289
The relative viability of the first is higher: 0.432 for the first, 0.201 for the second.

Compared with NCI-H23, NCI-H647 is lower in relative viability: 0.296 for the first, 0.009 for the second.

First: CAL-12T
Second: NCI-H1651
The relative viability of the first is lower: 0.241 for the first, 0.734 for the second.

First: EPLC-272H
Second: NCI-H2228
The relative viability of the first is higher: 0.242 for the first, 0.197 for the second.

First: NCI-H1355
Second: NCI-H3122
The relative viability of the first is higher: 0.477 for the first, 0.428 for the second.

First: NCI-H1437
Second: NCI-H1755
The relative viability of the first is lower: 0.373 for the first, 0.507 for the second.

Compared with NCI-H2023, HCC-15 is higher in relative viability: 0.182 for the first, 0.257 for the second.

Going from PC-14 to EKVX, the relative viability falls from 0.601 to 0.321.
